# Several values for one entry are separate records, joined by “and”; a condition that tells them apart may be missing. Equal entries are not always repeated.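 Interpolation was linear, between the two tested concentrations surrounding the appropriate level; five concentrations were tested over 48 hours in 96-well plates. GI50 = concentration required for 50% inhibition of growth. TGI denotes the concentration required for complete inhibition of growth.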
# Legend:
# Assay in all cases: NCI tumour cell line growth inhibition, 48 h
# [1] = test system: HCT-15 colon
# [2] = test system: SK-MEL-2 melanoma
# [3] = test system: HT29 colon
# [4] = test system: HL-60(TB) leukemia
# [5] = test system: U251 CNS
# [6] = test system: UO-31 renal
# [7] = test system: SK-MEL-5 melanoma
# [8] = test system: SF-539 CNS
# [9] = test system: EKVX NSCLC
# [10] = test system: LOX IMVI melanoma
# [11] = test system: MOLT-4 leukemia
smiles,measurement,setting,value
COc1ccc(N2C(=O)C3c4[nH]c5ccc([N+](=O)[O-])cc5c4C4CCC(C(C)(C)C)CC4C3C2=O)cc1 (stereo unspecified),TGI,[1],> 100 µM
same,TGI,[2],> 100 µM
same,TGI,[3],20.1 µM
same,TGI,[4],33.5 µM
same,TGI,[5],90.7 µM
same,TGI,[6],51.6 µM
same,TGI,[7],33.8 µM
same,TGI,[8],> 100 µM
same,TGI,[9],> 100 µM
same,TGI,[10],> 100 µM
same,TGI,[11],> 100 µM
N#Cc1c(N)[nH]c(=S)c(C#N)c1-c1cccc(Cl)c1,TGI,[1],> 100 µM
same,TGI,[2],56.6 µM
same,TGI,[3],> 100 µM
same,TGI,[4],65.2 µM
same,TGI,[5],> 100 µM
same,TGI,[6],> 100 µM
same,TGI,[7],> 100 µM
same,TGI,[8],> 100 µM
same,TGI,[9],97.9 µM
same,TGI,[10],> 100 µM
same,TGI,[11],57.8 µM
COc1ccc(-c2c(C#N)c(S)n(C3OC(COC(C)=O)C(OC(C)=O)C(OC(C)=O)C3OC(C)=O)c(=O)c2C#N)cc1 (stereo unspecified),TGI,[1],> 100 µM
same,GI50,[2],91.5 µM and 20 µM
same,TGI,[2],> 100 µM and 36.1 µM
same,TGI,[3],> 100 µM
same,TGI,[4],> 100 µM and 45.6 µM
same,GI50,[5],36.8 µM and 75.2 µM
same,TGI,[5],> 100 µM
same,TGI,[6],> 100 µM and 70.1 µM
same,GI50,[7],60.7 µM and 29.3 µM
same,TGI,[7],> 100 µM
same,TGI,[8],> 100 µM
same,TGI,[9],> 100 µM
same,TGI,[10],> 100 µM
same,GI50,[11],> 100 µM and 39.2 µM
same,TGI,[11],> 100 µM
c1sc(NC2=NCCO2)c2c1CCCC2,TGI,[1],> 100 µM
same,TGI,[2],> 100 µM
same,TGI,[3],> 100 µM
same,TGI,[4],> 100 µM
same,TGI,[5],> 100 µM
same,TGI,[6],> 100 µM
same,TGI,[7],> 100 µM
same,TGI,[8],> 100 µM
same,TGI,[9],> 100 µM
same,TGI,[10],> 100 µM
same,TGI,[11],> 100 µM
COc1ccc(C2C(Cl)C(=O)N2NC(=O)c2ccc(NC(C)=O)cc2)cc1 (stereo unspecified),TGI,[1],> 100 µM
same,TGI,[2],> 100 µM
same,TGI,[3],> 100 µM
same,TGI,[4],> 100 µM
same,TGI,[5],> 100 µM
same,TGI,[6],> 100 µM
same,TGI,[7],> 100 µM
same,TGI,[8],> 100 µM
same,TGI,[9],> 100 µM
same,TGI,[10],> 100 µM
same,TGI,[11],> 100 µM
COc1ccc(-c2c(C#N)c(N)n(C3OC(CO)C(O)C(O)C3O)c(=S)c2C#N)cc1 (stereo unspecified),TGI,[1],> 100 µM
same,TGI,[2],> 100 µM
same,TGI,[3],> 100 µM
same,TGI,[4],> 100 µM
same,TGI,[5],> 100 µM
same,TGI,[6],> 100 µM
same,TGI,[7],> 100 µM
same,TGI,[8],> 100 µM
same,TGI,[9],> 100 µM
same,TGI,[10],> 100 µM
same,TGI,[11],> 100 µM
Cc1cccc(N2C(=O)C3ON(C(C(N)=O)c4ccccc4)C(c4c5ccccc5c(Cl)c5ccccc45)C3C2=O)c1C (stereo unspecified),TGI,[1],22 µM
same,TGI,[2],20 µM
same,TGI,[3],14.9 µM
same,TGI,[4],23.3 µM
same,TGI,[5],15.6 µM
same,TGI,[6],24.2 µM
same,TGI,[7],13.9 µM
same,TGI,[8],16.8 µM
same,TGI,[9],22.5 µM
same,TGI,[10],16.5 µM
same,TGI,[11],10.2 µM

# Reference: PubChem BioAssay (NCI)
